# Values quoted from earlier work in PubChem BioAssay AID1259409 (Chemical Carcinogenesis Research Information System (CCRIS), 2018).
# Test system: rodent chemically induced tumor inhibition, incidence and multiplicity
# Experiment: CCRIS tumor inhibitor studies
SMILES,"tumour outcome (control, treated, inhibition, significance) (Carcinogen: 7,12-DIMETHYLBENZ[A]ANTHRACENE, 57-97-6, Dose [Inhibitor]: 0, 5 UMOL 2/WK BEGINNING 1 WK POST CARCINOGEN TREATMENT AND CONTINUING FOR 18 WK (STUDY DURATION: 19 WK), Route [Inhibitor]: DERMAL, Species: MOUSE, Strain/Sex: ICR/FEMALE, Target Tissue: Type of Lesion: SKIN: PAPILLOMA, Dose [Carcinogen]: 50 UG ONCE, Promoter: 12-O-TETRADECANOYLPHORBOL-13-ACETATE, 16561-29-8)","tumour outcome (control, treated, inhibition, significance) (Carcinogen: AZOXYMETHANE, 25843-45-2, Dose [Inhibitor]: 2 G/KG DIET DAILY FOR 26 WK STARTING SIMULTANEOUSLY WITH CARCINOGEN TREATMENT (STUDY DURATION: 26 WK), Route [Inhibitor]: ORAL, Species: RAT, Strain/Sex: SPRAGUE-DAWLEY/MALE, Target Tissue: Type of Lesion: LARGE INTESTINE: MALIGNANT TUMOR, Dose [Carcinogen]: 8 MG/KG BW INJECTED 1/WK FOR 8 WK, Promoter: NONE USED)","tumour outcome (control, treated, inhibition, significance) (Carcinogen: AZOXYMETHANE, 25843-45-2, Dose [Inhibitor]: 2 G/KG DIET DAILY FOR 26 WK STARTING SIMULTANEOUSLY WITH CARCINOGEN TREATMENT (STUDY DURATION: 26 WK), Route [Inhibitor]: ORAL, Species: RAT, Strain/Sex: SPRAGUE-DAWLEY/MALE, Target Tissue: Type of Lesion: SMALL INTESTINE: MALIGNANT TUMOR, Dose [Carcinogen]: 8 MG/KG BW INJECTED 1/WK FOR 8 WK, Promoter: NONE USED)","tumour outcome (control, treated, inhibition, significance) (Carcinogen: AZOXYMETHANE, 25843-45-2, Dose [Inhibitor]: 2 G/KG DIET DAILY STARTING SIMULTANEOUSLY WITH CARCINOGEN TREATMENT AND CONTINUING THROUGH END OF STUDY (STUDY DURATION:, Route [Inhibitor]: ORAL, Species: RAT, Strain/Sex: SPRAGUE-DAWLEY/MALE, Target Tissue: Type of Lesion: LARGE INTESTINE: MALIGNANT TUMOR, Dose [Carcinogen]: 8 MG/KG BW 1/WK FOR 8 WK, Promoter: NONE USED)","tumour outcome (control, treated, inhibition, significance) (Carcinogen: AZOXYMETHANE, 25843-45-2, Dose [Inhibitor]: 2 G/KG DIET DAILY STARTING SIMULTANEOUSLY WITH CARCINOGEN TREATMENT AND CONTINUING THROUGH END OF STUDY (STUDY DURATION:, Route [Inhibitor]: ORAL, Species: RAT, Strain/Sex: SPRAGUE-DAWLEY/MALE, Target Tissue: Type of Lesion: SMALL INTESTINE: MALIGNANT TUMOR, Dose [Carcinogen]: 8 MG/KG BW 1/WK FOR 8 WK, Promoter: NONE USED)","tumour outcome (control, treated, inhibition, significance) (Carcinogen: N-METHYL-N-NITROSOUREA, 684-93-5, Dose [Inhibitor]: 0.2% IN DIET DAILY FOR 28 WK STARTING SIMULTANEOUSLY WITH CARCINOGEN TREATMENT AND CONTINUING FOR DURATION OF STUDY (STU, Route [Inhibitor]: ORAL, Species: RAT, Strain/Sex: FISCHER CD/MALE, Target Tissue: Type of Lesion: COLON: ADENOMA, Dose [Carcinogen]: 2 MG IN 0.5 ML OF 0.9% NACL SOLUTION 1/3 D FOR 10 D, Promoter: NONE USED)","tumour outcome (control, treated, inhibition, significance) (Carcinogen: BENZO[A]PYRENE, 50-32-8, Dose [Inhibitor]: 25 MG IN 0.1 ML ACETONE 3/WK ADMINISTERED SIMULTANEOUSLY WITH CARCINOGEN FOR DURATION OF STUDY (STUDY DURATION: 440 D), Route [Inhibitor]: DERMAL, Species: MOUSE, Strain/Sex: ICR/FEMALE, Target Tissue: Type of Lesion: SKIN: PAPILLOMA, Dose [Carcinogen]: 5 UG IN 0.1 ML ACETONE 3/WK FOR DURATION OF STUDY, Promoter: NONE USED)","tumour outcome (control, treated, inhibition, significance) (Carcinogen: BENZO[A]PYRENE, 50-32-8, Dose [Inhibitor]: 25 MG IN 0.1 ML ACETONE 3/WK ADMINISTERED SIMULTANEOUSLY WITH CARCINOGEN FOR DURATION OF STUDY (STUDY DURATION: 440 D), Route [Inhibitor]: DERMAL, Species: MOUSE, Strain/Sex: ICR/FEMALE, Target Tissue: Type of Lesion: SKIN: SQUAMOUS CARCINOMA, Dose [Carcinogen]: 5 UG IN 0.1 ML ACETONE 3/WK FOR DURATION OF STUDY, Promoter: NONE USED)"
CC[C@H](CC[C@@H](C)[C@H]1CC[C@H]2[C@@H]3CC=C4C[C@@H](O)CC[C@]4(C)[C@H]3CC[C@]12C)C(C)C,"100%, 80%, 20%, not calculated","90%, 93%, -3%, not significant","90%, 96%, -7%, not significant","90%, 93%, -3%, not significant","90%, 96%, -7%, not significant","38/71 (54%), 16/48 (33%), 39%, p<0.05",–,–
CCCCCCCCCCCCCCCC,–,–,–,–,–,–,"16/50 (32%), 5/50 (10%), 69%, not calculated","12/50 (24%), 2/50 (4%), 83%, not calculated"
